# Source: PMC9525273 (Nature Communications, 2022)
# Values joined by “and” are separate entries in the source; they are usually repeats but may differ in a detail not shown here. Equal values may be shown once. Read-outs that look alike come from different tables or passages of the source.
# Experiments:
# Type in all cases: cell-based, Plasmodium falciparum
# NF54^WT parasites = test: microbe, parasite or virus in culture
# Procedure: (§1) For the NF54-based lines and Dd2-B2-PfATP4^G358S and its parent, assays were initiated with cultures containing predominantly ring-stage parasites with a parasitaemia of 0.3% and a haematocrit of 1%. All assays using NF54 were performed in culture media containing 10% O + human serum. The duration of the assays was 72 h and the concentration of DMSO was <0.5% (v/v). Serial dilutions of the test compounds were performed using a Tecan D300e digital dispenser, with parasite cultures added manually. Parasite survival was assessed by flow cytometry on an Intellicyt iQue3 (Essen Bioscience), with 1× SYBR Green I (Invitrogen) and 200 nM MitoTracker Deep Red FM (Invitrogen) used to stain the nucleus and the mitochondria in live parasites, respectively. The gating strategy used to quantify parasite survival, performed using FlowJo version 10 (FlowJo LLC.), is illustrated in Supplementary Fig. 9. IC50 and IC90 values were calculated by linear interpolation of the dose-response data.
# NF54^G358S-2 parasites = test: P. falciparum proliferation assay (72 h, flow cytometry, SYBR Green I/MitoTracker)
# Procedure: as §1
# NF54^CTL parasites = test: as above
# Procedure: as §1
# NF54^G358S-1 parasites = test: as above
# Procedure: as §1
# Dd2-Polδ parasites = test: P. falciparum proliferation assay (72 h, fluorescent DNA-intercalating dye)
# Procedure: (§2) For experiments with all other parasites, the effects of compounds of interest on parasite proliferation was measured in 96-well plates containing serial dilutions of the compounds in culture medium, with a fluorescent DNA-intercalating dye used to detect surviving parasites. The assays were initiated with erythrocytes infected with predominantly ring-stage parasites, and the starting parasitaemia and haematocrit were both 1%.
# [1] = test system: HCR1 parasites (highly cipargamin-resistant clone 1); test: as above; settings: Plasmodium falciparum
# Procedure: as §2
# [2] = test system: HCR2 parasites (highly cipargamin-resistant clone 2); test: as above; settings: Plasmodium falciparum
# Procedure: as §2
# [3] = test system: Dd2-Polδ-PfATP4^G358S parasites; test: as above
# Procedure: as §2
# Dd2 parasites = test: as above
# Procedure: as §2
# [4] = test system: Dd2-PfATP4^T418N,P990R parasites; test: as above
# Procedure: as §2
compound,measurement,setting,value
N#Cc1cc(NC(=O)[C@H]2c3ccccc3C(=O)N(CC(F)(F)F)[C@@H]2c2cccnc2)ccc1F [(+)-SJ733],IC90,"NF54^WT parasites; NF54WT parasites, individual experiments, read-out: IC90 values",171 nM and 165 nM and 176 nM
same,FC (IC50),"NF54^WT parasites; NF54WT, reference line",1.0 fold
same,FC (IC90),"NF54^WT parasites; NF54WT, reference line",1.0 fold
same,IC50,"NF54^WT parasites; NF54WT, single experiments, source data of Fig. 2 (nM in Supplementary Table 5), read-out: IC50 values",89.8 nM and 87.1 nM and 107 nM
same,IC90,"NF54^WT parasites; Plasmodium falciparum, NF54, NF54WT parasites, individual experiments, read-out: IC90 values",141 nM
same,IC90,"NF54^WT parasites; Plasmodium falciparum, NF54, NF54WT parasites, mean of the experiments, read-out: IC90 values, MEAN",164 nM
same,IC50,"NF54^WT parasites; Plasmodium falciparum, NF54, NF54WT, MEAN, source data of Fig. 2, read-out: IC50 values, MEAN",93.8 nM
same,IC50,"NF54^WT parasites; Plasmodium falciparum, NF54, NF54WT, single experiments, source data of Fig. 2 (nM in Supplementary Table 5), read-out: IC50 values",91.6 nM
same,IC50,"NF54^G358S-2 parasites; NF54G358S-2, single experiments, source data of Fig. 2 (nM in Supplementary Table 5), read-out: IC50 values",11600 nM and 13800 nM and 13500 nM
same,FC (IC50),NF54^G358S-2 parasites; NF54G358S-2 compared to NF54WT,138.1 fold
same,FC (IC90),NF54^G358S-2 parasites; NF54G358S-2 compared to NF54WT,152.9 fold
same,IC90,"NF54^G358S-2 parasites; NF54G358S-2 parasites, individual experiments, read-out: IC90 values",25500 nM and 23300 nM and 23800 nM
same,IC50,"NF54^G358S-2 parasites; Plasmodium falciparum, NF54, NF54G358S-2, 10% human serum, read-out: IC50 ± SEM",13000 ± 480 nM
same,IC90,"NF54^G358S-2 parasites; Plasmodium falciparum, NF54, NF54G358S-2, 10% human serum, read-out: IC90 ± SEM",25000 ± 892 nM
same,IC50,"NF54^G358S-2 parasites; Plasmodium falciparum, NF54, NF54G358S-2, MEAN, source data of Fig. 2, read-out: IC50 values, MEAN",13000 nM
same,IC50,"NF54^G358S-2 parasites; Plasmodium falciparum, NF54, NF54G358S-2, single experiments, source data of Fig. 2 (nM in Supplementary Table 5), read-out: IC50 values",12900 nM
same,IC90,"NF54^G358S-2 parasites; Plasmodium falciparum, NF54, NF54G358S-2 parasites, individual experiments, read-out: IC90 values",27300 nM
same,IC90,"NF54^G358S-2 parasites; Plasmodium falciparum, NF54, NF54G358S-2 parasites, mean of the experiments, read-out: IC90 values, MEAN",25000 nM
same,FC (IC50),NF54^CTL parasites; NF54CTL compared to NF54WT,0.9 fold
same,FC (IC90),NF54^CTL parasites; NF54CTL compared to NF54WT,0.9 fold
same,IC90,"NF54^CTL parasites; NF54CTL parasites, individual experiments, read-out: IC90 values",130 nM and 156 nM and 157 nM
same,IC50,"NF54^CTL parasites; NF54CTL, single experiments, source data of Fig. 2 (nM in Supplementary Table 5), read-out: IC50 values",85.7 nM and 81.4 nM and 82.7 nM
same,IC90,"NF54^CTL parasites; Plasmodium falciparum, NF54, NF54CTL parasites, mean of the experiments, read-out: IC90 values, MEAN",150 nM
same,IC50,"NF54^CTL parasites; Plasmodium falciparum, NF54, NF54CTL, MEAN, source data of Fig. 2, read-out: IC50 values, MEAN",84.8 nM
same,IC50,"NF54^CTL parasites; Plasmodium falciparum, NF54, NF54CTL, single experiments, source data of Fig. 2 (nM in Supplementary Table 5), read-out: IC50 values",89.3 nM
same,IC50,"NF54^G358S-1 parasites; NF54G358S-1, single experiments, source data of Fig. 2 (nM in Supplementary Table 5), read-out: IC50 values",12600 nM and 15300 nM and 15000 nM
same,FC (IC50),NF54^G358S-1 parasites; NF54G358S-1 compared to NF54WT,148.8 fold
same,FC (IC90),NF54^G358S-1 parasites; NF54G358S-1 compared to NF54WT,155.4 fold
same,IC90,"NF54^G358S-1 parasites; NF54G358S-1 parasites, individual experiments, read-out: IC90 values",25900 nM and 24200 nM and 24300 nM
same,IC50,"NF54^G358S-1 parasites; Plasmodium falciparum, NF54, NF54G358S-1, 10% human serum, read-out: IC50 ± SEM",14000 ± 683 nM
same,IC90,"NF54^G358S-1 parasites; Plasmodium falciparum, NF54, NF54G358S-1, 10% human serum, read-out: IC90 ± SEM",25400 ± 726 nM
same,IC50,"NF54^G358S-1 parasites; Plasmodium falciparum, NF54, NF54G358S-1, MEAN, source data of Fig. 2, read-out: IC50 values, MEAN",14000 nM
same,IC50,"NF54^G358S-1 parasites; Plasmodium falciparum, NF54, NF54G358S-1, single experiments, source data of Fig. 2 (nM in Supplementary Table 5), read-out: IC50 values",13000 nM
same,IC90,"NF54^G358S-1 parasites; Plasmodium falciparum, NF54, NF54G358S-1 parasites, individual experiments, read-out: IC90 values",27200 nM
same,IC90,"NF54^G358S-1 parasites; Plasmodium falciparum, NF54, NF54G358S-1 parasites, mean of the experiments, read-out: IC90 values, MEAN",25400 nM
same,IC50,"Dd2-Polδ parasites; Dd2-Polδ, single experiments, source data of Fig. 2 (nM in Supplementary Table 1), read-out: IC50 values",30.9 nM and 37.1 nM and 51.3 nM
same,IC50,"Dd2-Polδ parasites; Plasmodium falciparum, DD2, Dd2-Polδ, MEAN, source data of Fig. 2, read-out: IC50 values, MEAN",40.7 nM
same,IC50,"Dd2-Polδ parasites; Plasmodium falciparum, DD2, Dd2-Polδ, single experiments, source data of Fig. 2 (nM in Supplementary Table 1), read-out: IC50 values",43.6 nM
same,IC50,"[1]; HCR1, MEAN, source data of Fig. 2, read-out: IC50 values, MEAN",21500 nM
same,IC50,"[1]; read-out: Mean IC50 value ± SEM for growth inhibition, HCR1, Supplementary Table 1, Set 1",21500 nM
same,IC50,"[2]; HCR2, MEAN, source data of Fig. 2, read-out: IC50 values, MEAN",17600 nM
same,IC50,"[2]; read-out: Mean IC50 value ± SEM for growth inhibition, HCR2, Supplementary Table 1, Set 1",17600 nM
same,IC50,"[3]; Dd2-Polδ-PfATP4G358S, single experiments, source data of Fig. 2 (nM in Supplementary Table 1), read-out: IC50 values",11800 nM and 8860 nM and 8730 nM
same,IC50,"[3]; Plasmodium falciparum, DD2, Dd2-Polδ-PfATP4G358S, MEAN, source data of Fig. 2, read-out: IC50 values, MEAN",9070 nM
same,IC50,"[3]; Plasmodium falciparum, DD2, Dd2-Polδ-PfATP4G358S, single experiments, source data of Fig. 2 (nM in Supplementary Table 1), read-out: IC50 values",6890 nM
same,IC50,"[3]; Plasmodium falciparum, DD2, SET-2, read-out: Mean IC50 value ± SEM for growth inhibition, Dd2-Polδ-PfATP4G358S, Supplementary Table 1, Set 2",9070 nM
same,IC50,"Dd2 parasites; Plasmodium falciparum, DD2, read-out: IC50 values, Dd2, single experiments, source data of Fig. 2 (nM in Supplementary Table 1)",58.3 nM
same,IC50,"Dd2 parasites; Plasmodium falciparum, DD2, read-out: IC50 values, MEAN, Dd2, MEAN, source data of Fig. 2",59.6 nM
same,IC50,"Dd2 parasites; Plasmodium falciparum, DD2, read-out: Mean IC50 value ± SEM for growth inhibition, Dd2, Supplementary Table 1, Set 1",60 ± 2 nM
same,IC50,"Dd2 parasites; read-out: IC50 values, Dd2, single experiments, source data of Fig. 2 (nM in Supplementary Table 1)",66.6 nM and 57.7 nM and 59 nM and 56.4 nM
same,IC50,"[4]; Dd2-PfATP4T418N,P990R, single experiments, source data of Fig. 2 (nM in Supplementary Table 1), read-out: IC50 values",359 nM and 293 nM and 333 nM and 337 nM
same,IC50,"[4]; Plasmodium falciparum, DD2, Dd2-PfATP4T418N,P990R, MEAN, source data of Fig. 2, read-out: IC50 values, MEAN",331 nM
same,IC50,"[4]; Plasmodium falciparum, DD2, Dd2-PfATP4T418N,P990R, single experiments, source data of Fig. 2 (nM in Supplementary Table 1), read-out: IC50 values",334 nM
same,IC50,"[4]; Plasmodium falciparum, DD2, read-out: Mean IC50 value ± SEM for growth inhibition, Dd2-PfATP4T418N,P990R, Supplementary Table 1, Set 1",331 ± 11 nM
